The values that follow come from patent publication US7329798B2, “Harvest-inducible regulatory elements and methods of using same” (University of Guelph, priority 2002, dated 2008).

The test system of experiment [1] is H7 regulatory region fused to GUS reporter gene in transgenic tobacco plants. The experiment is described as follows: In planta induction of GUS expression by ABA (histochemical GUS assay). The settings on record: plants sprayed with 25-50 mL 6.0 AM ABA in distilled water with Tween-20, left 24 h; non-treated plants exhibited no GUS activity. The class given is in vivo, tobacco (cultivar PetH4). On the procedure: Tobacco leaves from regenerated plants grown in the greenhouse, and leaves and stems from M. truncatula plants grown from the cocultivated seedlings were incubated in the X-gluc substrate and the green pigments removed for visualization of the blue precipitate resulting from GUS enzyme activity (Jefferson et al., 1987, EMBO J. 6:3901-7).
(§1) In order to test induction of the expression of transgenes using abscisic acid (ABA), the H7 promoter was fused to the beta-glucuronidase (GUS) reporter gene and histochemical assays conducted for GUS gene activity, which results in a blue colour in plant tissue (Jefferson et al., 1987, EMBO J. 6:3901-7). The promoter region for the H7 (nucleotides 1-634 of FIG. 8; SEQ ID NO:4) was fused to the 5′ terminus of the GUS gene in the binary vector pB1101 (Jefferson et al., 1987, EMBO J. 6:3901-7, FIG. 1a), as described in Example 4.
The binary vector was transferred tobacco plants (cultivar PetH4) using Agrobacterium tumefaciens, as previously described in Example 4.
(§2) Transgenic plants were grown to maturity, but prior to flowering, in a greenhouse at 23-25° C., with supplemental light to provide an approximately 16 h photoperiod and with 20-20-20 fertilizer as required.
Plants were sprayed with 25-50 mL 6.0 AM ABA (trans isomers ABA, Sigma) in distilled water, with a drop of Tween™-20 until the leaves were dripping. […]

Experiment [2] concerns H7 regulatory region fused to GUS reporter gene in transgenic tobacco callus. The experiment is described as follows: In vitro induction of GUS expression by ABA in callus (histochemical GUS assay). The class given is cell-based, tobacco (cultivar PetH4). The following applies: callus on solid media pH 5.0 with 40 μM ABA, 2 days, 25° C.
From the text: as §1, §2
Leaf discs were cut and surface sterilized using 3.5% bleach for 20 min, then washed with ethanol and rinsed three times with distilled water. The washed discs were plated in Petri dishes on original callusing media (MS medium supplemented with vitamins, 2.0 mg/L NAA, 0.2 mg/L BAP pH 5.8, 7 g/L agar solid media and 100 mg/L kanamycin). The Petri dishes were then placed in a dark incubator at 25° C. for 3 days. Following dark incubation, plated discs were then incubated at 25° C. with a 16 h photoperiod for 2-3 weeks.
Over this time, abundant callus (white or pale green) are formed, overgrowing the original tissue. […]

For the molecule `CC1=CC(=O)CC(C)(C)[C@@]1(O)/C=C/C(C)=C\C(=O)O` [ABA, abscisic acid], the “GUS activity in leaves” value in experiment [1] is on record as “GUS activity was detected”. Besides, in experiment [2], the “GUS expression in callus” value was “GUS is expressed in the callus”.
